Our source for the EC50 values is patent US20230192686A1, “1H-PYRROLO[2,3-B]PYRIDINES AND PREPARATION AND USES THEREOF” (BioSplice Therapeutics, Inc., priority 2021, published 2023).

This experiment addresses recombinant DYRK1A kinase (Homo sapiens, UniProt Q13627). The experiment is described as follows: DYRK1A kinase assay (Ser/Thr 18 peptide Z-lyte FRET). Conditions: DYRK1A kinase activity; 15 μM ATP, 4 μM Ser/Thr peptide 18, one hour at room temperature. In kind it is biochemical. How it is done: Representative compounds were screened using the assay procedure for DYRK1A kinase activity as described below.
Each compound was dissolved in DMSO as a 10 mM stock and used to prepare compound source plates. Serial dilution (1:3, 11-point dose-response curves from 10 μM to 0.00016 μM) and compound transfer was performed using the ECHO 550 (Labcyte, Sunnyvale, Calif.) into 1536-well black-walled round bottom plates (Corning).
The DYRK1A kinase assay was run using the Ser/Thr 18 peptide Z-lyte assay kit according to manufacturer's instructions (Life Technologies—a Division of Thermo-Fisher). This is a non-radioactive assay using fluorescence resonance energy transfer (FRET) between coumarin and fluorescein to detect kinase activity which is represented as a ratio of coumarin emission/fluorescein emission.
Briefly, recombinant DYRK1A kinase, ATP and Ser/Thr peptide 18 were prepared in 1× Kinase buffer to final concentrations of 0.25 μg/mL, 15 μM, and 4 μM respectively. The mixture was allowed to incubate with the representative compounds for one hour at room temperature. All reactions were performed in duplicate. Unphosphorylated (“0% Control”) and phosphorylated (“100% control”) forms of Ser/Thr 18 served as control reactions. Additionally, an 11-point dose-response curve of Staurosporine (1 uM top) was run to serve as a positive compound control.
After incubation, Development Reagent A was diluted in Development Buffer then added to the reaction and allowed to further incubate for one hour at room temperature. The plate was read at Ex 400 Em 455 to detect the coumarin signal and Ex 400 Em 520 to measure the signal (EnVision Multilabel Plate Reader, PerkinElmer).
The Emission ratio (Em) was calculated as a ratio of the coumarin (C) emission signal (at 445 nm)/Fluorescein (F) emission signal (at 520 nm). The percent phosphorylation was then calculated using the following formula: [1−((Em ratio×F100%)−C100%)/((C0%−C100%)+(Em ratio×(F100%−F0%)))]. Dose-response curves were generated, and inhibitory concentration (IC50) values were calculated using non-linear regression curve fit in the Dotmatics' Studies Software (Bishops Stortford, UK).

For `c1cnc2[nH]cc(-c3ccnc4[nH]ccc34)c2c1` [Compound 2, 1H,1′H-3,4′-Bipyrrolo[2,3-b]pyridine], the EC50 (as a rule, the concentration giving half of the maximal effect) stood at 50 nM.

For `Cn1cc2cc(-c3c[nH]c4ncccc34)ccc2n1` [Compound 3, 2-Methyl-5-(1H-pyrrolo[2,3-b]pyridin-3-yl)-2H-indazole], the EC50 was 6 nM.

Take `c1cnc2sc(-c3c[nH]c4ncccc34)nc2c1` [Compound 4, 2-(1H-Pyrrolo[2,3-b]pyridin-3-yl)thiazolo[5,4-b]pyridine]: the half-maximal effective concentration (EC50) amounted to 7 nM.

For `c1cnc2[nH]cc(-c3cc4ccncc4s3)c2c1` [Compound 5, 2-(1H-Pyrrolo[2,3-b]pyridin-3-yl)thieno[2,3-c]pyridine], the EC50 amounted to 10 nM.

In the case of `c1cnc2[nH]cc(-c3nc4cnccc4[nH]3)c2c1` [Compound 7, 2-(1H-Pyrrolo[2,3-b]pyridin-3-yl)-1H-imidazo[4,5-c]pyridine], the EC50 worked out at 201 nM.

Turning to `O=C1NCCn2nc(-c3c[nH]c4ncccc34)cc21` [Compound 8, 2-(1H-Pyrrolo[2,3-b]pyridin-3-yl)-6,7-dihydropyrazolo[1,5-a]pyrazin-4(5H)-one], the EC50 was determined as 7 nM.

In the case of `CC1(C)NC(=O)c2cc(-c3c[nH]c4ncccc34)nn21` [Compound 9, 6,6-Dimethyl-2-(1H-pyrrolo[2,3-b]pyridin-3-yl)-5,6-dihydro-4H-imidazo[1,5-b]pyrazol-4-one], the EC50 worked out at 19 nM.

`O=C1NCCn2cc(-c3c[nH]c4ncccc34)cc21` [Compound 10, 7-(1H-Pyrrolo[2,3-b]pyridin-3-yl)-3,4-dihydropyrrolo[1,2-a]pyrazin-1(2H)-one]: the 50% effective concentration (EC50) stood at 14 nM.

As to `O=C1NCCc2sc(-c3c[nH]c4ncccc34)cc21` [Compound 11, 2-(1H-Pyrrolo[2,3-b]pyridin-3-yl)-6,7-dihydrothieno[3,2-c]pyridin-4(5H)-one], the EC50 was 12 nM.

On to `c1cnc2[nH]cc(-c3ccc4nccn4c3)c2c1` [Compound 12, 6-(1H-Pyrrolo[2,3-b]pyridin-3-yl)imidazo[1,2-a]pyridine], for which the EC50 was found to be 3 nM.

`Cc1cn2cc(-c3c[nH]c4ncccc34)cc(F)c2n1` [Compound 13, 8-Fluoro-2-methyl-6-(1H-pyrrolo[2,3-b]pyridin-3-yl)imidazo[1,2-a]pyridine]: the EC50 was 21 nM.

For the compound `CN1CCC(NC(=O)c2cnc3ccc(-c4c[nH]c5ncccc45)cn23)CC1` [Compound 14, N-(1-Methylpiperidin-4-yl)-6-(1H-pyrrolo[2,3-b]pyridin-3-yl)imidazo[1,2-a]pyridine-3-carboxamide], the EC50 came to 1 nM.

On to `CN(C)Cc1cnc2ccc(-c3c[nH]c4ncccc34)cn12` [Compound 18, 1-(6-(1H-Pyrrolo[2,3-b]pyridin-3-yl)imidazo[1,2-a]pyridin-3-yl)-N,N-dimethylmethanamine], for which the EC50 came to 17 nM.

Take `c1cnc2[nH]cc(-c3cn4ccnc4cn3)c2c1` [Compound 20, 6-(1H-Pyrrolo[2,3-b]pyridin-3-yl)imidazo[1,2-a]pyrazine]: the EC50 worked out at 10 nM.

For `CN1CCN(C(=O)c2cnc3cnc(-c4c[nH]c5ncccc45)cn23)CC1` [Compound 21, (6-(1H-Pyrrolo[2,3-b]pyridin-3-yl)imidazo[1,2-a]pyrazin-3-yl)(4-methylpiperazin-1-yl)methanone], the EC50 was found to be 16 nM.

As to `Cc1nc2c(F)cc(-c3c[nH]c4ncccc34)cc2n1C1CCNCC1` [Compound 23, 4-Fluoro-2-methyl-1-(piperidin-4-yl)-6-(1H-pyrrolo[2,3-b]pyridin-3-yl)-1H-benzo[d]imidazole], the EC50 came to 2 nM.

Take `Cc1nc2c(F)cc(-c3c[nH]c4ncccc34)cc2n1C1CCN(C)CC1` [Compound 24, 4-Fluoro-2-methyl-1-(1-methylpiperidin-4-yl)-6-(1H-pyrrolo[2,3-b]pyridin-3-yl)-1H-benzo[d]imidazole]: the EC50 turned out to be 1 nM.

In the case of `Cc1nc2ccc(-c3c[nH]c4ncccc34)nc2n1C(C)C` [Compound 27, 3-Isopropyl-2-methyl-5-(1H-pyrrolo[2,3-b]pyridin-3-yl)-3H-imidazo [4,5-b]pyridine], the EC50 stood at 2 nM.

For the compound `c1cnc2[nH]cc(-c3ccc4nc5n(c4n3)CCC5)c2c1` [Compound 28, 2-(1H-Pyrrolo[2,3-b]pyridin-3-yl)-7,8-dihydro-6H-pyrrolo [2′,1′:2,3]imidazo[4,5-b]pyridine], the EC50 amounted to 19 nM.

As for `c1cnc2[nH]cc(-c3ccc4ncnn4c3)c2c1` [Compound 29, 6-(1H-Pyrrolo[2,3-b]pyridin-3-yl)-[1,2,4]triazolo[1,5-a]pyridine], the EC50 stood at 10 nM.

With `c1cnc2[nH]cc(-c3ccn4ncnc4c3)c2c1` [Compound 30, 7-(1H-Pyrrolo[2,3-b]pyridin-3-yl)-[1,2,4]triazolo[1,5-a]pyridine], the EC50 was determined as 13 nM.

`Cn1nnc2ccc(-c3c[nH]c4ncccc34)cc21` [Compound 31, 1-Methyl-6-(1H-pyrrolo[2,3-b]pyridin-3-yl)-1H-benzo[d][1,2,3]triazole]: the EC50 came out at 4 nM.

On to `Cc1nnc2ccc(-c3c[nH]c4ncccc34)cn12` [Compound 32, 3-Methyl-6-(1H-pyrrolo[2,3-b]pyridin-3-yl)-[1,2,4]triazolo[4,3-a] pyridine], for which the EC50 was 151 nM.

As to `Cc1cnc2ccc(-c3c[nH]c4ncccc34)nn12` [Compound 34, 3-Methyl-6-(1H-pyrrolo[2,3-b]pyridin-3-yl)imidazo[1,2-b]pyridazine], the EC50 turned out to be 2 nM.

As for `OCc1cnc2ccc(-c3c[nH]c4ncccc34)nn12` [Compound 35, (6-(1H-Pyrrolo[2,3-b]pyridin-3-yl)imidazo[1,2-b]pyridazin-3-yl) methanol], the EC50 was found to be 2 nM.

As to `c1cnc2[nH]cc(-c3ccn4nccc4c3)c2c1` [Compound 36, 3-(Pyrazolo[1,5-a]pyridin-5-yl)-1H-pyrrolo[2,3-b]pyridine], the EC50 turned out to be 2 nM.

Consider `c1cncc(-c2cnn3ccc(-c4c[nH]c5ncccc45)cc23)c1` [Compound 38, 3-(3-(Pyridin-3-yl)pyrazolo[1,5-a]pyridin-5-yl)-1H-pyrrolo[2,3-b] pyridine], for which the EC50 was 2 nM.

For `O=C(NCC1(F)CNC1)c1cnn2ccc(-c3c[nH]c4ncccc34)cc12` [Compound 41, N-((3-Fluoroazetidin-3-yl)methyl)-5-(1H-pyrrolo[2,3-b]pyridin-3-yl) pyrazolo[1,5-a]pyridine-3-carboxamide], the EC50 turned out to be 2 nM.

As for `CN1CC(F)(CNC(=O)c2cnn3ccc(-c4c[nH]c5ncccc45)cc23)C1` [Compound 42, N-((3-Fluoro-1-methylazetidin-3-yl)methyl)-5-(1H-pyrrolo[2,3-b]pyridin-3-yl)pyrazolo[1,5-a]pyridine-3-carboxamide], the EC50 turned out to be 2 nM.

As for `O=C(N[C@@H]1CCNC[C@H]1F)c1cnn2ccc(-c3c[nH]c4ncccc34)cc12` [Compound 43, N-((3R,4R)-3-Fluoropiperidin-4-yl)-5-(1H-pyrrolo[2,3-b]pyridin-3-yl) pyrazolo[1,5-a]pyridine-3-carboxamide], the EC50 came out at 1 nM.

Take `CN1CC[C@@H](NC(=O)c2cnn3ccc(-c4c[nH]c5ncccc45)cc23)[C@H](F)C1` [Compound 44, N-((3R,4R)-3-Fluoro-1-methylpiperidin-4-yl)-5-(1H-pyrrolo[2,3-b]pyridin-3-yl)pyrazolo[1,5-a]pyridine-3-carboxamide]: the EC50 amounted to 1 nM.

As to `CN1CCC(NC(=O)c2cnn3ccc(-c4c[nH]c5ncccc45)cc23)CC1` [Compound 45, N-(1-Methylpiperidin-4-yl)-5-(1H-pyrrolo[2,3-b]pyridin-3-yl) pyrazolo[1,5-a]pyridine-3-carboxamide], the EC50 was 1 nM.

Consider `CN1CCC(N(C)C(=O)c2cnn3ccc(-c4c[nH]c5ncccc45)cc23)CC1` [Compound 46, N-Methyl-N-(1-methylpiperidin-4-yl)-5-(1H-pyrrolo[2,3-b]pyridin-3-yl)pyrazolo[1,5-a]pyridine-3-carboxamide], for which the concentration for a half-maximal effect (EC50) amounted to 5 nM.

For `O=C(NC1CCN(C2CC2)CC1)c1cnn2ccc(-c3c[nH]c4ncccc34)cc12` [Compound 47, N-(1-Cyclopropylpiperidin-4-yl)-5-(1H-pyrrolo[2,3-b]pyridin-3-yl) pyrazolo[1,5-a]pyridine-3-carboxamide], the EC50 is 2 nM.

For the compound `O=C(NC1CCN(CC2CC2)CC1)c1cnn2ccc(-c3c[nH]c4ncccc34)cc12` [Compound 48, N-(1-(cyclopropylmethyl)piperidin-4-yl)-5-(1H-pyrrolo[2,3-b]pyridin-3-yl)pyrazolo[1,5-a]pyridine-3-carboxamide], the EC50 was 1 nM.

Consider `CC(F)(F)CN1CCC(NC(=O)c2cnn3ccc(-c4c[nH]c5ncccc45)cc23)CC1` [Compound 49, N-(1-(2,2-Difluoropropyl)piperidin-4-yl)-5-(1H-pyrrolo[2,3-b]pyridin-3-yl)pyrazolo[1,5-a]pyridine-3-carboxamide], for which the EC50 came to 1 nM.
